The text below walks through data of US10093651B2, “Ghrelin O-acyl transferase inhibitors” (Eli Lilly and Company, priority 2015, dated 2018).

One test addresses human GOAT (Homo sapiens (Human), UniProt Q96T53). Kind of test: In vitro cell free human GOAT enzymatic assay. In kind it is biochemical. The note with it: purified GOAT enzyme, ELISA readout of acyl-ghrelin. How it is done: In Vitro Cell Free Human GOAT Enzymatic Assay
Human GOAT gene (Accession number: NM 001100916) is subcloned to pAN51 baculoviral expression vector. Baculovirus stock is prepared following the Bac-to-Bac Protocol provided by the vendor, Invitrogen, California, USA. Five mililiters of human GOAT baculoviral stock are added to 500 mL SDf cells in HyQ SFX-Insect™ media (HyClone catalog number SF130278.02) at the density of 1×10^6 cells per milliliter in a 2 L Erlenmeyer flask. The flask with human GOAT gene infected Sf9 cells is put on a plate shaker at 120 rpm at 28° C. for 48 hours. After 48 hours incubation, cells are centrifuged at 1,000×g for 10 min at 4° C. The cell pellets are collected and stored at −80° C. in a freezer until ready for further processing.
Preparation of Microsomal Membrane of GOAT Enzyme for the Enzymatic Assay:
One gram cell pellets are suspended in 9 mL chilled homogenization buffer (50 mM Tris-HCl, 250 mM sucrose, adjusted to pH 7.5 and sterile filtered through 0.2 μm Millipore filter). The cell suspension is transferred to a Dounce glass homogenizer. Cell pellets are homogenized with 40 strokes on ice. The homogenate is centrifuged at 3,000 rpm in a Beckman swing bucket rotor at 4° C. for 10 min to remove unbroken cells. The supernatant is collected and centrifuged at 40,000×g for 1 hour at 4° C. The resulting membrane pellet is suspended in the homogenization buffer using a Dounce glass homogenizer and stored at −20° C. in the freezer for the assay. For long term storage of the human GOAT enzyme membrane preparation, the suspended membrane is stored in a −80° C. freezer.
Human GOAT Enzymatic Assay Protocol:
Prepare test compounds in DMSO to make up a 0.2 mM stock solution. Serially dilute the stock solution in DMSO to obtain a ten-point dilution curve with final compound concentrations ranging from 10 μM to 0.5 nM in a 96-well round-bottom plate. Prepare enzyme and substrate solutions in assay buffer (0.02% TWEEN™-20 in 50 mM Tris, pH 7.5/250 mM sucrose/1 mg/mL BSA/10 mM EDTA). Add diluted compound (1 μL) to each well of row A to N of a corresponding low protein binding 384 well plate. Add human GOAT substrate mix (10 μL), consisting of human desacyl-ghrelin-biotin (CPC Scientific Inc., 6.0 μM final), octanoyl-coenzyme A (CoA) (Sigma, 60 μM final) and an AG specific antibody (WO 2006/091381)([…] final), to the compounds. Add GOAT-His/sf9 enzyme preparation, that has been prepared in assay buffer (9 μL), to each well of the plate containing substrate and test compounds resulting in a final concentration of 0.01 μg/mL to initiate the reaction. Incubate the mixture for 1 hour at RT on a gently rotating oscillator. Add 4M guanidine hydrochloride (20 μL) to all wells, mix, and incubate for 3 hours to stop the reaction.
Prepare ELISA plates (STREPTAVIDIN SPECTRAPLATE™ 384, Perkin Elmer) by blocking with 2% Heat-Inactivated FBS in PBS (40 μL) (Invitrogen) blocking buffer for 3 hours. Aspirate the blocking buffer from ELISA plate and add blocking buffer (23 μL) to columns 1-24, rows A-N. Reserve rows O and P for the acylghrelin standard curve. Add the reaction mix (2 μL) to the ELISA plates. Prepare a 10 point standard curve (biotin-labeled octanoyl-ghrelin) by serial 2× dilution in blocking buffer containing 0.2M Guanidine hydrochloride starting at 2.5 pM. Incubate the reaction mixture or biotin-labeled AG standard in the ELISA plate overnight at 4° C. […]
On the technique in general: An ELISA detects its analyte on a solid surface through an enzyme-linked reagent.

The target in the next test is GOAT (Mus musculus (Mouse), UniProt P0C7A3). Briefly: In vivo dose dependent 3 day BID study for GOAT inhibitor (plasma AG and UAG by ELISA). The note with it: mice, 3 days; for reduction in AG to total ghrelin ratio: compared to vehicle-treated control animals; for decrease of plasma AG / increase of UAG: vs vehicle; for AG (% of control) / AG/Total-ghrelin (% of vehicle control) / UAG (% of vehicle control) / increase of UAG: plasma. The arrangement: species or system male C57BL/6 mice. How it is done:
Comparing the change in the ratio of AG to total ghrelin in the compound treated group and that of the vehicle treated group reflects the degree of GOAT enzyme inhibition in vivo, due to the dynamic processing of UAG to AG by the GOAT enzyme. In the in vivo pharmacodynamic studies herein, the levels of AG and UAG in plasma and stomach in the vehicle and compound treated groups are measured by ELISA specifically to these two analytes. The total ghrelin level of each sample is computed as the sum of AG and UAG by these ELISA measurements. The ratio of AG to total ghrelin is defined by the level of AG in each sample divided by the level of total ghrelin in the same sample. The levels of AG, UAG and ratio of AG to total ghrelin in the vehicle treated group is computed and set as 100%. The relative change of these parameters in the compound treated group is then computed to determine the effectiveness of the test compound.
In Vivo Dose Dependent 3 Day BID Study for GOAT Inhibitor:E
Purchase male C57BL/6 mice from Harlaan (Indianapolis, Ind.) at 9 weeks of age. House the mice individually in a temperature-controlled (24° C.) facility with a 12 hours light/dark cycle (lights on 2200 h), and allow free access to a standard rodent chow (diet 2014, Harlan) and water. Typically, use the mice when they are 10-13 weeks of age at the time of the study. On day 0 of the experiment, randomize the mice into treatment groups (N=7/group) so each group has similar mean body weights. On day 1 and day 2, treat the animals with vehicle (1% hydroxyethylcellulose, 0.25% TWEEN™ 80, 0.05% antifoam) or test compound prepared in the vehicle as suspension at various dosages by oral gavage at 7 am and 7 pm. On day 3, fast the animals, move them into clean cages and dose with vehicle or the test compound again at 8 am by oral gavage. That same day at 1 pm, sacrifice the animals by decapitation to collect blood. For details of blood collection and plasma treatments see Blood collection and Extraction of Ghrelin from Plasma section below.
Collect approximately 600 μL blood into a pre-weighed EDTA tube containing 600 μL (defined as Vpreservative) freshly-prepared preservative (4 mM PEFABLOC® [4-(2-aminoethyl) benzenesulfonyl fluoride hydrochloride], 72 mM NaCl, 58 mM NaF, 0.032 N hydrochloric acid, pH 3.0) and mix immediately. Weigh the tube again and keep on ice. To accurately determine the exact blood volume of each sample using this blood collection procedure, the weight of the blood for each mouse is computed using the following equation: Weight of Blood=(Weight of the tube containing Blood+preservative)−(Weight of the tube containing preservative) Blood volume (Vblood)=(Weight of blood)/1.06
Note, the density of rodent blood is assumed as 1.06 g/mL.
Within 15 minutes after the blood collection, samples are centrifuged at 5000 rpm at 4° C. for 8 min. Remove plasma (650 μL) to a 5 mL glass tube containing 1 N hydrochloric acid (65 μL), mix and keep on ice.
Ghrelin Extraction by SEP-PAK® Column:
AG and UAG are extracted from plasma using SEP-PAK®_C18 column to remove interference prior to performing the ELISA. The solid phase extraction of AG and UAG peptides by SEP-PAK®_C18 columns can be performed on a vacuum manifold (Waters Corp) or using a peristaltic pump. The sample SEP-PAK®_column extraction procedure is independently applied to the plasma sample obtained from each individual mouse. The general extraction protocol is described as follows.
All solutions used for the entire protocol of the SEP-PAK® column extraction should be at ice cold condition. Wet SEP-PAK®_columns (WAT054960, Waters Corp, Milford Mass.) with 99.9% ACN/0.1% TFA (1 mL of solution of 100 mL ACN/0.1 mL TFA). […] Once liquid is removed from the column, stop the pressure. Equilibrate the columns with 3% ACN/0.1% TFA (I mL of 97 mL water, 3 mL ACN, 0.1 mL TFA). […] Dilute approximately 650 μL acidified plasma (defined as Vplasma added to column) to 1.4 mL ice cold 0.1% TFA. […]

Sequence of GOAT (P0C7A3 whole entry): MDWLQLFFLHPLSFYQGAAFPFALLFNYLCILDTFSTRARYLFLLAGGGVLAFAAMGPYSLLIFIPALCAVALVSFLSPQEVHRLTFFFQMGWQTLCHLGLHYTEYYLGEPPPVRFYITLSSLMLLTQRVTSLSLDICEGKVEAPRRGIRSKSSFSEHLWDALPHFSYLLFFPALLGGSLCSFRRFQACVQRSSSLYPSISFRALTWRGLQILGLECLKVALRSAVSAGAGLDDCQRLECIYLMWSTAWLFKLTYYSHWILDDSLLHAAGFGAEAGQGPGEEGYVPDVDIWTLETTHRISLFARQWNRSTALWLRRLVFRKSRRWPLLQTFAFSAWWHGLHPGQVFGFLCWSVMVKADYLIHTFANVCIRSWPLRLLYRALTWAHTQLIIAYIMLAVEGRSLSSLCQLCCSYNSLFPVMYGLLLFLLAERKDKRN
Sequence of human GOAT (Q96T53 whole entry): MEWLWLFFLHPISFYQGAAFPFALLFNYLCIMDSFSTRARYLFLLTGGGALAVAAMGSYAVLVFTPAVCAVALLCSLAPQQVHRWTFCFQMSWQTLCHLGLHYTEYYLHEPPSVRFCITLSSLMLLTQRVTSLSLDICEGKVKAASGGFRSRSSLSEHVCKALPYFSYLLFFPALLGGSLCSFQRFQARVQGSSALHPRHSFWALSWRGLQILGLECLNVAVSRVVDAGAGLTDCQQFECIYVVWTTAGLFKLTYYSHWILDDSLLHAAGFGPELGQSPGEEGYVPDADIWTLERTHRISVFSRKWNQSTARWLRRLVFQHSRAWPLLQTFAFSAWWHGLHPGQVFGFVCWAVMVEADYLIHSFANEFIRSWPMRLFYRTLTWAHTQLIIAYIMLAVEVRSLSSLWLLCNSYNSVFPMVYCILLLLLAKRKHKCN

As usually defined, the IC50 is the concentration needed to halve the response being measured. Read a high IC50 as weaker potency in that assay. On human GOAT, `Cc1nc(C(F)(F)F)nc(N)c1CCC1CCN(C(=O)[C@H](C)NC(=O)CO)CC1` [Example 18, N-[(1S)-2-[4-[2-[4-Amino-6-methyl-2-(trifluoromethyl)pyrimidin-5-yl]ethyl]-1-piperidyl]-1-methyl-2-oxo-ethyl]-2-hydroxy-acetamide] returned a concentration for half-maximal inhibition (IC50) of 276 nM.

`COC(=O)N[C@@H](C)C(=O)N1CCC(CCc2c(C)nc(C(F)(F)F)nc2N)CC1` [Example 20, Methyl-[(1S)-2-[4-[2-[4-amino-6-methyl-2-(trifluoromethyl)pyrimidin-5-yl]ethyl]-1-piperidyl]-1-methyl-2-oxo-ethyl]carbamate] returned an IC50 at human GOAT of 615 nM.

On to `Cc1nc(C(F)(F)F)nc(N)c1CCC1CCN(C(=O)[C@H](C)NC(=O)c2nccnc2Cl)CC1` [Example 15, N-[(1S)-2-[4-[2-[4-Amino-6-methyl-2-(trifluoromethyl)pyrimidin-5-yl]ethyl]-1-piperidyl]-1-methyl-2-oxo-ethyl]-3-chloro-pyrazine-2-carboxamide], for which 55.7 nM corresponded to half-maximal inhibition at human GOAT (IC50).

For `Cc1nc(C(F)(F)F)nc(N)c1CCC1CCN(C(=O)[C@H](C)NC(=O)c2ccnn2C)CC1` [Example 2, N-[(1 S)-2-[4-[2-[4-Amino-6-methyl-2-(trifluoromethyl)pyrimidin-5-yl]ethyl]-1-piperidyl]-1-methyl-2-oxo-ethyl]-2-methyl-pyrazole-3-carboxamide], the “reduction in AG to total ghrelin ratio” value at GOAT (0.1 mg/kg) stood at 57%; on GOAT (0.3 mg/kg) it was 62%; on GOAT (1 mg/kg), 79%; at GOAT (3 mg/kg) it was 82%; on GOAT (10 mg/kg) it was 82%. The “decrease of plasma AG” value was 40% at GOAT (0.1 mg/kg); 60% at GOAT (0.3 mg/kg); 56% on GOAT (1 mg/kg); 63% at GOAT (3 mg/kg); 63% on GOAT (10 mg/kg). The “AG (% of control)” value on GOAT (0.1 mg/kg oral gavage BID) is 60 ± 8 (n = 7) % of control; at GOAT (0.3 mg/kg oral gavage BID), 40 ± 10 (n = 7) % of control; on GOAT (1 mg/kg oral gavage BID), 44 ± 6 (n = 14) % of control; on GOAT (3 mg/kg oral gavage BID), 37 ± 9.6 (n = 14) % of control; at GOAT (10 mg/kg oral gavage BID), 37 ± 9.9 (n = 7) % of control. In addition, the “AG/Total-ghrelin (% of vehicle control)” value is 43 ± 3 (n = 7) % of vehicle control at GOAT (0.1 mg/kg oral gavage BID); 28 ± 1 (n = 7) % of vehicle control on GOAT (0.3 mg/kg oral gavage BID); 21 ± 1 (n = 14) % of vehicle control on GOAT (1 mg/kg oral gavage BID); 18 ± 5 (n = 14) % of vehicle control at GOAT (3 mg/kg oral gavage BID); 18 ± 3 (n = 7) % of vehicle control at GOAT (10 mg/kg oral gavage BID). The “UAG (% of vehicle control)” value is reported as 210 ± 43 (n = 7) % of vehicle control at GOAT (0.1 mg/kg oral gavage BID); 222 ± 54 (n = 7) % of vehicle control on GOAT (0.3 mg/kg oral gavage BID); 357 ± 30 (n = 14) % of vehicle control on GOAT (1 mg/kg oral gavage BID); 349 ± 41 (n = 14) % of vehicle control on GOAT (3 mg/kg oral gavage BID); 378 ± 59 (n = 7) % of vehicle control on GOAT (10 mg/kg oral gavage BID). Besides, the “increase of UAG” value was 2.10 fold at GOAT (0.1 mg/kg); 2.22 fold on GOAT (0.3 mg/kg); 3.57 fold on GOAT (1 mg/kg); 3.49 fold on GOAT (3 mg/kg); 3.78 fold on GOAT (10 mg/kg). The same compound came in with an IC50 on human GOAT of 69.5 ± 0.6 nM.

Regarding `COc1ccccc1C(=O)N[C@@H](C)C(=O)N1CCC(CCc2c(C)nc(C(F)(F)F)nc2N)CC1` [Example 17, N-[(1S)-2-[4-[2-[4-Amino-6-methyl-2-(trifluoromethyl)pyrimidin-5-yl]ethyl]-1-piperidyl]-1-methyl-2-oxo-ethyl]-2-methoxy-benzamide], the IC50 on human GOAT came out at 420 nM.
